Patent US9981950B2, “Triazoles as NR2B receptor inhibitors” (Janssen Pharmaceuticals, Inc., priority 2014, dated 2018)
pIC50: −log10 of the molar value.

Experiments:
[1] = molecular target: cloned human NR1/NR2B ion channels (Homo sapiens (Human), UniProt Q05586+Q13224); assay: HNR2BC: calcium influx assay on cloned human NR1/NR2B ion channels expressed in HEK cells; assay type: cell-based; settings: HEK cells hNR1/NR2B, 100 μM glutamate + 100 μM glycine, 3 parameter plot
Description: HNR2BC: Effects of Test Articles on Cloned Human NR1/NR2B Ion Channels Expressed in Mammalian Cells
The ability of test compounds to act as an antagonist of NR1/NR2B were evaluated with a calcium influx assay (Calcium 5 Assay Kit, Molecular Devices).
For the antagonist assessment, NR1/NR2B was activated with the positive control agonist (Mg^2+-free HBPS+100 μM glutamic acid+100 μM glycine). The effect of each test article to inhibit the signal was examined after agonist stimulation and compared to the positive control antagonist (MK-801).
A HEK cell line, stable transfected with hNR1/NR2B was used. This tetracycline inducible cell line is transfected with GRIN1 (GeneBank accession number NM 007327.2) and GRIN2B (GeneBank accession number NM_000834.3.). The cells were cultured in cell culture flasks with DMEM/F12 supplemented with 10% FCS, 1% PenStrep and a selection of additional antibiotics.
Forty-Eight (48) hours before the assay the cells were plated into 96-well black well, flat clear bottom microtiter plates at a density of 50000 cells/well. Twenty-Four (24) hours later the receptor expression was induced by the addition of 1 μg/ml tetracycline in the presence of 2 mM ketamine and 200 μM 7-CKA. After 24 h of receptor induction the plates were used for the assay.
The medium was removed and the cells were loaded with 200 μl loading buffer (Molecular Devices) in Mg2+-free HBPS containing 100 μM 7-CKA at 37° C. for one (1) hour.
The test compounds were then solubilized in 100% DMSO and diluted to yield eight (8) different concentrations in 100% DMSO. A 96 well drug plate was prepared by diluting with water and glycine/glutamate to a 5-fold of final test concentration. Fluorescence intensity of the cells in the plate was measured in a FlexStation using an excitation wavelength of 485 nm and an emission wavelength of 525 nm. Twenty (20) seconds after starting the recordings the compounds together with the agonists glycine (100 μM) and glutamate (100 μM) were added into the wells and the fluorescence measured for ninety (90) seconds in summary.
The IC50 values provided in the paragraph below were determined using a 3 parameter plot.

hERG-receptor = hERG-receptor (Homo sapiens (Human), UniProt Q12809); assay: HERGBD: inhibition of specific 3H-Dofetilide binding to the hERG-receptor; settings: HEK cell membranes with human ERG, Hill-plot 2-parameter-model
Outline: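 Membranes from HEK cells stably expressing human ERG incubated 90 min at RT with 1.5 nmol/l 3H-dofetilide in 20 mM HEPES/0.1 mM KCl pH 7.2, inhibitor in 1% DMSO. Nonspecific binding with […] dofetilide; bound ligand separated by filtration and scintillation counted.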

rat NR1/NR2B receptor = rat NR1/NR2B receptor (Rattus norvegicus (Rat), UniProt P35439+Q00960); assay: RRNR2BB: inhibition of specific binding to the rat NR1/NR2B receptor; settings: [3H]-Ifenprodil binding, rat brain membranes, Hill-plot 2-parameter-model
Outline: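 Washed membranes from male Wistar rat forebrain (whole brain minus cerebellum) in 5 mM Tris/1 mM EDTA pH 7.4 used in ifenprodil-site binding, 60 min at 4° C. Nonspecific binding defined with […] CP101.606; bound separated by filtration on PEI-soaked filters. IC50 from Hill plot, 2-parameter model.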

cloned human NR1/NR2B ion channels, sequence (Q13224 27-1484, other chains not shown): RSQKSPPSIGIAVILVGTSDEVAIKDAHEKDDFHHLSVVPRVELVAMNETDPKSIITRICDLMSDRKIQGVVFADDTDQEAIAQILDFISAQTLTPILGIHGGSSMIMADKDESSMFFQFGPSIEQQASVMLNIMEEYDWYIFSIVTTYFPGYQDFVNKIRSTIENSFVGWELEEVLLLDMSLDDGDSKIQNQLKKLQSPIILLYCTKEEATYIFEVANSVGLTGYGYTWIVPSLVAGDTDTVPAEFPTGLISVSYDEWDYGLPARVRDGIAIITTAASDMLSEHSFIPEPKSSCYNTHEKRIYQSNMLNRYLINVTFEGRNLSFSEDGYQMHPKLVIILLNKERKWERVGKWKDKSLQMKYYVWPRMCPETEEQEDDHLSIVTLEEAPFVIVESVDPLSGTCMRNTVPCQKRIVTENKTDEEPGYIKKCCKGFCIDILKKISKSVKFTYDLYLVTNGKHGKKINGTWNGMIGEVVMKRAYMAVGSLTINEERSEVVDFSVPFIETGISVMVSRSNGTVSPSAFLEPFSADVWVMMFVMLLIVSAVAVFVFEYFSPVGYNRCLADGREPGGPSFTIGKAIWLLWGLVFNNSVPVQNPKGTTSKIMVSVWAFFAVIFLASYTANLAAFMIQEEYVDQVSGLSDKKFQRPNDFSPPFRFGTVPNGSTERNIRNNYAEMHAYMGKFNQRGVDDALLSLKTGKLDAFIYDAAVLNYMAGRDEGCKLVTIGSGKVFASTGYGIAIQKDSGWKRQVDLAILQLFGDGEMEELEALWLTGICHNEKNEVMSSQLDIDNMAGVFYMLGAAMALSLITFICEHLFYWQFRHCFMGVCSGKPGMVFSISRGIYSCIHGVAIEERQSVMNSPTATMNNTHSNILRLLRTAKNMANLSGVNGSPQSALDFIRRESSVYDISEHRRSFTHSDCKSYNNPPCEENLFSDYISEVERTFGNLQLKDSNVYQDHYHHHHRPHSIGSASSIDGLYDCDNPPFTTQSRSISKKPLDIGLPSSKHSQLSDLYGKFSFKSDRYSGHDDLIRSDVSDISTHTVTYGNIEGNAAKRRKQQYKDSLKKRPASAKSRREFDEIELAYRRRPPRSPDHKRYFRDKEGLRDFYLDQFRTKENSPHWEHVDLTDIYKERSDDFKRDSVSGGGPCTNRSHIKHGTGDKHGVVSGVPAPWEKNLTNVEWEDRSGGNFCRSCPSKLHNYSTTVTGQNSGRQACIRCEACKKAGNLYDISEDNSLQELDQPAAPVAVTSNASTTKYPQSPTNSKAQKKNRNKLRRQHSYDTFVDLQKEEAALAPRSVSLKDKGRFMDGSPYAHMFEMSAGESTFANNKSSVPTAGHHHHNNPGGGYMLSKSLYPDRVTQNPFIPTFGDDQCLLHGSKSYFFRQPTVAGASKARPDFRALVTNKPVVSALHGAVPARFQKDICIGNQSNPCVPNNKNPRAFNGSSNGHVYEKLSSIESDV
rat NR1/NR2B receptor, sequence (Q00960 27-1482, other chains not shown): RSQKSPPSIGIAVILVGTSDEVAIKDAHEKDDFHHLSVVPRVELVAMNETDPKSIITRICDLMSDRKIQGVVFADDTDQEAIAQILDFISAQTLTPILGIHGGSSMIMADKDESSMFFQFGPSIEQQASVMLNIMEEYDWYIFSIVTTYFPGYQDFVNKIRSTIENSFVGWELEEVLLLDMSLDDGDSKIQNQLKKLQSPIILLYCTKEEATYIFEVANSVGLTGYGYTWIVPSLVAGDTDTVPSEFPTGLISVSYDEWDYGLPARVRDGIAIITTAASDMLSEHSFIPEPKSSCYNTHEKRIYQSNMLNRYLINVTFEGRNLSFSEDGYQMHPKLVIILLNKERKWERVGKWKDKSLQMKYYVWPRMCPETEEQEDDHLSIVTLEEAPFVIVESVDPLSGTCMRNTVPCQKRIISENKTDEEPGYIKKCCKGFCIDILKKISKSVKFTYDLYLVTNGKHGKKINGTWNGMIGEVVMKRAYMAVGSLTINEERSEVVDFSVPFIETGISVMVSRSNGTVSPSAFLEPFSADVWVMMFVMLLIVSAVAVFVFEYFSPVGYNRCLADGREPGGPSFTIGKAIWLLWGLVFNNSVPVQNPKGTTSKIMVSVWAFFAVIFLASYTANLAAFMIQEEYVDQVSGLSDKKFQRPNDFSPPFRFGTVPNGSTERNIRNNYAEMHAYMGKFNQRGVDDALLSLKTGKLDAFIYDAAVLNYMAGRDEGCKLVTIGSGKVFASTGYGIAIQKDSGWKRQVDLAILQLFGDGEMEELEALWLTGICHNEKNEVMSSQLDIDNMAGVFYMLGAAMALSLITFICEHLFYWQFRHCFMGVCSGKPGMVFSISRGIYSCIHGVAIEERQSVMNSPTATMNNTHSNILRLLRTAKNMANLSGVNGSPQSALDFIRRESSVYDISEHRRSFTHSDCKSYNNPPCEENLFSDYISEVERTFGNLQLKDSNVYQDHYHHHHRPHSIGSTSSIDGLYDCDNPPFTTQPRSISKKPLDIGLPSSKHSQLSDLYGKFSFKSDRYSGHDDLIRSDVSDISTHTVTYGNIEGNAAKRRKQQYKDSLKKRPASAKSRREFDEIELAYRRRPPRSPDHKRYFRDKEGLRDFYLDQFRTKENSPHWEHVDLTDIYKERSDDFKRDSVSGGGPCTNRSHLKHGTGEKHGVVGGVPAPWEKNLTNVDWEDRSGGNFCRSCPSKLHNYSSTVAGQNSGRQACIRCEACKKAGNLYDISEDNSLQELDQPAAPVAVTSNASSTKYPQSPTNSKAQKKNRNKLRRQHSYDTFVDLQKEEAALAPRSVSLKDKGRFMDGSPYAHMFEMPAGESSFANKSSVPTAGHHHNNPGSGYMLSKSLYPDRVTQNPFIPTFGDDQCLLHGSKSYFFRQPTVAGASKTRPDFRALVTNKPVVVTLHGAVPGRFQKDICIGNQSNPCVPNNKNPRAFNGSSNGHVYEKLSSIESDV
hERG-receptor, sequence (Q12809 whole entry): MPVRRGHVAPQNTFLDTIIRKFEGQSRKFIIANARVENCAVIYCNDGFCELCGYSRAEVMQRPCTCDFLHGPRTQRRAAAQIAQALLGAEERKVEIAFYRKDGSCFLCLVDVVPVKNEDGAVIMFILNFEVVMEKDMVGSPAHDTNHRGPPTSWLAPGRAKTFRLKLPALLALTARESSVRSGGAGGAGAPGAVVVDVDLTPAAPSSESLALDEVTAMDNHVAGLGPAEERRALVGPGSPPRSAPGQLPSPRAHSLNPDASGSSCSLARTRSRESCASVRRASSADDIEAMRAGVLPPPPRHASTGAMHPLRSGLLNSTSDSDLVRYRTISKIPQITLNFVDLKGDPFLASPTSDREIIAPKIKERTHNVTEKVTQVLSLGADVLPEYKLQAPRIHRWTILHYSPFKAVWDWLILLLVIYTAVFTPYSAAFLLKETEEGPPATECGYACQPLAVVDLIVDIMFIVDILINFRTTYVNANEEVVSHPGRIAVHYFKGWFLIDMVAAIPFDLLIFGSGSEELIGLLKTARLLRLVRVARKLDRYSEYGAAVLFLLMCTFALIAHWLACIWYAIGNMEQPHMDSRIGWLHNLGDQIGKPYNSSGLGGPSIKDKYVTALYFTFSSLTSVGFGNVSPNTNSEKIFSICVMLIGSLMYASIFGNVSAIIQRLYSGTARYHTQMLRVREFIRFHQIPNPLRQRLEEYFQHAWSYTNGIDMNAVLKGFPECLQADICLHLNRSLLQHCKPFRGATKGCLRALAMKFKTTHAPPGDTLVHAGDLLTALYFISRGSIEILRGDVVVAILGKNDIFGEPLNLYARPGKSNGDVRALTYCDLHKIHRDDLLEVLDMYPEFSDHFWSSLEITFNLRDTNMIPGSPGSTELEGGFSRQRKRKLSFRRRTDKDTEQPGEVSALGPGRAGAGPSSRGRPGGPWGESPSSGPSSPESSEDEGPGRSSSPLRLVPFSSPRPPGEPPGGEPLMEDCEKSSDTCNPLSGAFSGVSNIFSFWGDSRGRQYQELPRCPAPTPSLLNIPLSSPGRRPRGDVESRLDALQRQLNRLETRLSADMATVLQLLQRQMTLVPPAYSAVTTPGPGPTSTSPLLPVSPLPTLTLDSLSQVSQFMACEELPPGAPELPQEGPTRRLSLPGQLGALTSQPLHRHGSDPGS

pIC50 [1] | pIC50 (rat NR1/NR2B receptor) | SMILES | pIC50 (hERG-receptor)
5.50 | – | CCc1nccn1Cc1cn(-c2ccc(F)c(Cl)c2)nn1 [Example 42, 1-(3-Chloro-4-fluoro-phenyl)-4-(2-ethyl-imidazol-1-ylmethyl)-1H-[1,2,3]triazole] | –
5.47 | – | Nc1nccn1Cc1cn(-c2cc(F)cc(C(F)F)c2)nn1 [Example 111, 4-(2-amino-imidazol-1-ylmethyl)-1-(3-fluoro-5-difluoromethyl-phenyl)-1H-[1,2,3]triazole] | 5.48
4.98 | – | Fc1ccc(-n2cc(Cc3cc[nH]n3)nn2)cc1C(F)F [Example 115, 1-(3-difluoromethyl-4-fluoro-phenyl)-4-(1H-pyrazol-3-ylmethyl)-1H-[1,2,3]triazole] | –
4.65 | < 5.30 | Cc1ccc(C(=O)c2nccn2Cc2cn(-c3ccc(Cl)cc3)nn2)cc1 [Example 116, [1-[[1-(4-chlorophenyl)triazol-4-yl]methyl]imidazol-2-yl]-(p-tolyl)methanone] | –

SMILES | pIC50 [1] | pIC50 (rat NR1/NR2B receptor) | pIC50 (hERG-receptor)
CC(C)c1nccn1Cc1cn(-c2ccc(Cl)c(OC(F)F)c2)nn1 [Example 97, 1-(4-Chloro-3-difluoromethoxy-phenyl)-4-(2-isopropyl-imidazol-1-ylmethyl)-1H-[1,2,3]triazole] | 6.24 | – | –
